# Results from ChEMBL document CHEMBL3885881, “DrugMatrix”.
# Species: Rattus norvegicus
# Assay: DrugMatrix - Regimen: Daily Repeat
# Assay type: toxicity, organism-based, Sprague-Dawley
# Design: regimen Daily Repeat, gender Male, age 6-8 weeks
# Conditions: in vivo, po, route oral GAVAGE, vehicle .5 % CMC; for ABSOLUTE BASOPHIL / ABSOLUTE EOSINOPHIL / ABSOLUTE LYMPHOCYTE / ABSOLUTE MONOCYTE / ABSOLUTE SEGMENTED NEUTROPHIL / BASOPHIL / EOSINOPHIL / ERYTHROCYTE COUNT / HEMATOCRIT / HEMOGLOBIN / LEUKOCYTE COUNT / LYMPHOCYTE / MEAN CORPUSCULAR HEMOGLOBIN / MEAN CORPUSCULAR HEMOGLOBIN CONCENTRATION / MEAN CORPUSCULAR VOLUME / MONOCYTE / NEUTROPHIL / NUCLEATED RED BLOOD CELLS / PLATELET COUNT: tissue Blood; for ALANINE AMINOTRANSFERASE / ALBUMIN / ALKALINE PHOSPHATASE / ASPARTATE AMINOTRANSFERASE / BLOOD UREA NITROGEN / CARBON DIOXIDE / CHLORIDE / CHOLESTEROL / CREATINE PHOSPHOKINASE / CREATININE / GLUCOSE / LACTATE DEHYDROGENASE / LIPASE / PHOSPHORUS / POTASSIUM / SODIUM / TOTAL BILIRUBIN / TOTAL PROTEIN / URIC ACID: tissue Plasma
# [1] = 0 mg/kg, 72 h, dose level Control, time 3 day
# [2] = 0 mg/kg, 120 h, dose level Control, time 5 day
# [3] = 55 mg/kg, 72 h, dose level Low, time 3 day
smiles,measurement,setting,value
CCN1CCCC1CNC(=O)c1cc(S(N)(=O)=O)ccc1OC (centres undefined) [SULPIRIDE],ABSOLUTE BASOPHIL,[1],0 CELLS/uL
same,ABSOLUTE EOSINOPHIL,[1],0 CELLS/uL
same,ABSOLUTE LYMPHOCYTE,[1],12269.67 CELLS/uL
same,ABSOLUTE MONOCYTE,[1],160.33 CELLS/uL
same,ABSOLUTE SEGMENTED NEUTROPHIL,[1],970 CELLS/uL
same,BASOPHIL,[1],0%
same,EOSINOPHIL,[1],0%
same,ERYTHROCYTE COUNT,[1],5.76 x10E6/uL
same,HEMATOCRIT,[1],36.57%
same,HEMOGLOBIN,[1],14.22 G/DL
same,LEUKOCYTE COUNT,[1],13.4 x10E3/uL
same,LYMPHOCYTE,[1],91.67%
same,MEAN CORPUSCULAR HEMOGLOBIN,[1],24.67 pg
same,MEAN CORPUSCULAR HEMOGLOBIN CONCENTRATION,[1],38.85 G/DL
same,MEAN CORPUSCULAR VOLUME,[1],63.52 fL
same,MONOCYTE,[1],1.17%
same,NEUTROPHIL,[1],7.17%
same,NUCLEATED RED BLOOD CELLS,[1],0.33 /100WBC
same,PLATELET COUNT,[1],1250.83 x10E3/uL
same,ALANINE AMINOTRANSFERASE,[1],49.17 u/L
same,ALBUMIN,[1],4.33 G/DL
same,ALKALINE PHOSPHATASE,[1],378.5 u/L
same,ASPARTATE AMINOTRANSFERASE,[1],82.17 u/L
same,BLOOD UREA NITROGEN,[1],15 mg/dL
same,CARBON DIOXIDE,[1],34.33 mmol/L
same,CHLORIDE,[1],99.17 MEQ/L
same,CHOLESTEROL,[1],71.17 mg/dL
same,CREATINE PHOSPHOKINASE,[1],258.67 u/L
same,CREATININE,[1],0.18 mg/dL
same,GLUCOSE,[1],142.67 mg/dL
same,LACTATE DEHYDROGENASE,[1],154.33 u/L
same,LIPASE,[1],9 u/L
same,PHOSPHORUS,[1],11.67 mg/dL
same,POTASSIUM,[1],7.13 MEQ/L
same,SODIUM,[1],142.22 MEQ/L
same,TOTAL BILIRUBIN,[1],0.18 mg/dL
same,TOTAL PROTEIN,[1],5.77 G/DL
same,URIC ACID,[1],1.55 mg/dL
same,ABSOLUTE BASOPHIL,[2],0 CELLS/uL
same,ABSOLUTE EOSINOPHIL,[2],23.33 CELLS/uL
same,ABSOLUTE LYMPHOCYTE,[2],14943.67 CELLS/uL
same,ABSOLUTE MONOCYTE,[2],32 CELLS/uL
same,ABSOLUTE SEGMENTED NEUTROPHIL,[2],1084.33 CELLS/uL
same,BASOPHIL,[2],0%
same,EOSINOPHIL,[2],0.17%
same,ERYTHROCYTE COUNT,[2],5.71 x10E6/uL
same,HEMATOCRIT,[2],35.28%
same,HEMOGLOBIN,[2],14.27 G/DL
same,LEUKOCYTE COUNT,[2],16.08 x10E3/uL
same,LYMPHOCYTE,[2],93%
same,MEAN CORPUSCULAR HEMOGLOBIN,[2],25.02 pg
same,MEAN CORPUSCULAR HEMOGLOBIN CONCENTRATION,[2],40.43 G/DL
same,MEAN CORPUSCULAR VOLUME,[2],61.82 fL
same,MONOCYTE,[2],0.17%
same,NEUTROPHIL,[2],6.67%
same,NUCLEATED RED BLOOD CELLS,[2],0.33 /100WBC
same,PLATELET COUNT,[2],1274 x10E3/uL
same,ALANINE AMINOTRANSFERASE,[2],54.17 u/L
same,ALBUMIN,[2],4.22 G/DL
same,ALKALINE PHOSPHATASE,[2],373.17 u/L
same,ASPARTATE AMINOTRANSFERASE,[2],81.83 u/L
same,BLOOD UREA NITROGEN,[2],16.67 mg/dL
same,CARBON DIOXIDE,[2],30.33 mmol/L
same,CHLORIDE,[2],99 MEQ/L
same,CHOLESTEROL,[2],71 mg/dL
same,CREATINE PHOSPHOKINASE,[2],273.5 u/L
same,CREATININE,[2],0.22 mg/dL
same,GLUCOSE,[2],141.83 mg/dL
same,LACTATE DEHYDROGENASE,[2],153.67 u/L
same,LIPASE,[2],10.33 u/L
same,PHOSPHORUS,[2],11.38 mg/dL
same,POTASSIUM,[2],7.08 MEQ/L
same,SODIUM,[2],142.75 MEQ/L
same,TOTAL BILIRUBIN,[2],0.18 mg/dL
same,TOTAL PROTEIN,[2],6.1 G/DL
same,URIC ACID,[2],1.67 mg/dL
same,ABSOLUTE BASOPHIL,[3],0 CELLS/uL
same,ABSOLUTE EOSINOPHIL,[3],0 CELLS/uL
same,ABSOLUTE LYMPHOCYTE,[3],13264 CELLS/uL
same,ABSOLUTE MONOCYTE,[3],100 CELLS/uL
same,ABSOLUTE SEGMENTED NEUTROPHIL,[3],869.33 CELLS/uL
same,BASOPHIL,[3],0%
same,EOSINOPHIL,[3],0%
same,ERYTHROCYTE COUNT,[3],5.78 x10E6/uL
same,HEMATOCRIT,[3],37.4%
same,HEMOGLOBIN,[3],14.93 G/DL
same,LEUKOCYTE COUNT,[3],14.23 x10E3/uL
same,LYMPHOCYTE,[3],93.33%
same,MEAN CORPUSCULAR HEMOGLOBIN,[3],25.87 pg
same,MEAN CORPUSCULAR HEMOGLOBIN CONCENTRATION,[3],39.97 G/DL
same,MEAN CORPUSCULAR VOLUME,[3],64.7 fL
same,MONOCYTE,[3],0.67%
same,NEUTROPHIL,[3],6%
same,NUCLEATED RED BLOOD CELLS,[3],0 /100WBC
same,PLATELET COUNT,[3],1265.67 x10E3/uL
same,ALANINE AMINOTRANSFERASE,[3],40.33 u/L
same,ALBUMIN,[3],4.83 G/DL
same,ALKALINE PHOSPHATASE,[3],335 u/L
same,ASPARTATE AMINOTRANSFERASE,[3],84.67 u/L
same,BLOOD UREA NITROGEN,[3],20.33 mg/dL
same,CARBON DIOXIDE,[3],26 mmol/L
same,CHLORIDE,[3],104 MEQ/L
same,CHOLESTEROL,[3],78.67 mg/dL
same,CREATINE PHOSPHOKINASE,[3],305 u/L
same,CREATININE,[3],0.26 mg/dL
same,GLUCOSE,[3],178.33 mg/dL
same,LACTATE DEHYDROGENASE,[3],183 u/L
same,LIPASE,[3],11.67 u/L
same,PHOSPHORUS,[3],15 mg/dL
same,POTASSIUM,[3],6.9 MEQ/L
same,SODIUM,[3],149.67 MEQ/L
same,TOTAL BILIRUBIN,[3],0.13 mg/dL
same,TOTAL PROTEIN,[3],6.7 G/DL
same,URIC ACID,[3],2.27 mg/dL
